Tests used:
[1] = tested on: Watanabe Heritable Hyperlipidemic Rabbits (WHHL); assay: Immunohistochemistry and staining of WHHL rabbit aorta; format: in vivo
Protocol: Immunohistochemical staining was performed to assess inflammatory content using the primary antibodies (1:200 concentration) and a detection system (Immunoperoxidase Secondary Detection System; Chemicon International, Temecula, Calif.), and quantified with software (NIH Image) after digitization of the images with a camera system (Zeiss Axioskop with Spot I digital camera). Antibodies against CD68 were purchased from Santa Cruz Biotechnology Incorporated (Santa Cruz, Calif.). A polyclonal anti-α-Actin antibody was obtained from Upstate Cell Signaling Solutions (Lake Placid, N.Y.). T cell receptor β antibody was obtained from Biolegend (San Diego, Calif.). To quantify the staining, the mean density of 4 negative control (no primary antibody) sections was set as the threshold, and positive area was acquired by software. Results were finally normalized by the area subtended by the external elastic lamina to the luminal interface or the intimal-medial volume. The effects of INV-75 on macrophages and smooth muscle cells in comparison to control group were evaluated by CD68 and α-actin immunohistochemistry, respectively. INV-75 decreased the number of macrophages vs. controls and summary of whole groups is represented by bar diagram in FIG. 10 (n=4-5 animals/group). *p<0.05 vs control animals using unpaired t test). […] INV-75 increased the smooth muscle content (% of total area) vs controls and the combined results were represented as a bar diagram n=5/group (n=number of animals used per group). *p<0.05 vs control animals.
Lipid deposition in aorta was identified after total 14 weeks of treatment with drug, rabbits were sacrificed and abdominal aortas were fixed in 4% paraformaldehyde. The lipid deposition in aortic wall was then visualized by oil red staining. […] (FIG. 13).

[2] = tested on: New Zealand White rabbits; assay: MRI assessment of atherosclerosis in balloon denuded NZW rabbits; format: in vivo, rabbit
Protocol: Animal Model: 15 male New Zealand White rabbits (Charles River, Mass.) were fed with high fat diet (HFD) (Harlan Teklad rabbit diet with 0.5% cholesterol, TD 87251). After 4 weeks of high fat diet, rabbits were randomized into three different treatment groups, normal control (n=5), lipoic acid (100 mg/kg/day) (n=5), INV 70-65 (100 mg/kg/day) (n=5). These drugs were administered to the animals via their chow by mixing the drugs with the high fat diet. A fixed amount of chow and drugs admixed in the chow were fed to all animals every day after carefully calculating food intake in each rabbit. Drugs were dissolved in 100% ethanol and sprayed onto the diet and kept under vacuum to let ethanol evaporate overnight. Two (2) weeks after drug or control admixed HFD, all rabbits underwent aortic balloon denudation surgeries followed by 12 weeks of continued administration of drug or controls admixed with HFD. FIG. 29 provides an outline of the experimental design.
MRI experiments were conducted at two time points: 1 week and 12 weeks after the balloon denudation procedure (FIG. 29). […] MR images were analyzed using a Siemens Leonardo Workstation (Siemens Healthcare Inc. Germany).
To assess the different rates of atherosclerosis plaque progression for each rabbit group, the aortic wall was identified in the pre-contrast images at both MRI time points. […] To account for the variable number of slices, for each rabbit a normalized aortic wall volume was calculated.
To assess plaque neovasculature progression in the different treatment groups, only the 12 weeks post balloon denudation MR images were used. […] The signal to noise ratio (SNR) for each slice was calculated as the mean signal obtained from the vessel wall divided by the standard deviation of the noise from a region outside the body. A ratio of the SNR enhancement for each rabbit was obtained by dividing the post and pre contrast calculated SNRs.

SMILES | collagen content (Masson's trichrome) ([1]; WHHL abdominal aorta, vs control group) | lipid component (Oil Red O) ([1]; WHHL abdominal aorta, vs controls) | number of macrophages (CD68) ([1]; WHHL aorta, vs controls) | smooth muscle content (% of total area, α-actin) ([1]; WHHL aorta, vs controls) | gadolinium enhancement of the aorta ([2]; compared to controls and lipoic acid treatment) | plaque burden by MRI ([2]; high fat diet, 100 mg/kg/day, 12 weeks)
CC(=O)Oc1cc2c(cc1[N+](=O)[O-])OCO2 [INV-75, 3,4-methylenedioxy-6-nitrophenyl acetate] | reduction | decreased | decreased | increased |  | 
O=C(CCCCC1CCSS1)Oc1ccc2c(c1)OCO2 (stereo not drawn) [INV-7065, 3,4-Methylenedioxy phenyl lipoate] |  |  |  |  | reduction | marked attenuation

Source: US8198317B2, “Methylenedioxy phenolic compounds and their use to treat disease” (The Ohio State University Research Foundation, priority 2008, dated 2012)
